# ChEMBL document CHEMBL5375961, “Design, Synthesis, and Biological Evaluation of Trisubstituted Piperazine Derivatives as Noncovalent Severe Acute Respiratory Syndrome Coronavirus 2 Main Protease Inhibitors with Improved Antiviral Activity and Favorable Druggability” (J Med Chem, 2023)
# System: SARS-CoV-2
# Test: Antiviral activity against SARS-CoV-2 Delta (B.1.617.2) infected in African green monkey Vero E6 cells assessed as reduction in viral replication treated for 1 hr followed by replacement with fresh medium containing compounds measured after 23 hrs in presence of CP-100356 by qRT-PCR analysis
# Type: functional, organism-based
# Conditions: Severe acute respiratory syndrome coronavirus 2, Delta (B.1.617.2), Vero C1008
compound,measurement,value
CC(C)(C)[C@H](NC(=O)C(F)(F)F)C(=O)N1CC2(C[C@H]1C(=O)N[C@H](C#N)C[C@@H]1CCNC1=O)SCCS2,EC50,34 nM
